Source: patent US20060002866A1, “Method for protecting the skin from aging” (priority 2002, published 2006)

System: lumican mRNA in MRC5 fibroblasts
Experiment: Stimulation of the lumican mRNA content in MRC5 fibroblasts (Northern Blot)
Format: cell-based, human
Conditions: for Mean value [mRNA lumican/36B4 mRNA]: MRC5 fibroblasts, lumican mRNA against housekeeping gene 36B4 mRNA
Procedure: Northern Blot technique for determining the RNA messengers in cells of low molecular weight proteoglycans, such as lumican and syndecan.
The stimulation of the lumican mRNA content in MRC5 fibroblasts incubated with increasing concentrations of the growth factor IGF-1 (Insulin-like Growth Factor 1, Sigma-Aldrich) was investigated. The content of mRNA of the proteoglycan lumican in cultures of human fibroblasts—MRC5 fibroblasts—was determined by the Northern Blot method.

IGF-1: growth factor IGF-1 (Insulin-like Growth Factor 1, Sigma-Aldrich)
Mean value [mRNA lumican/36B4 mRNA] (IGF-1 0.1 ng/ml): 1.38
Mean value [mRNA lumican/36B4 mRNA] (IGF-1 1 ng/ml): 2
Mean value [mRNA lumican/36B4 mRNA] (IGF-1 10 ng/ml): 3.2
Effect on mRNA content for lumican (cultures of MRC5 fibroblasts): increases the mRNA content for lumican
